Results: US7387880B2, “Method for monitoring resting and activated platelets in unfixed blood samples” (PPD Biomarker Discovery Sciences, LLC, priority 2000, dated 2008)

How the values were obtained:
CD62P on platelets [1] = assay: Platelet stimulation, CD62P expression by MLSC; type: cell-based, human
Protocol: Platelet stimulation. Thrombin stimulation was carried out on either washed platelets or 1:10 diluted whole blood in the presence of the fibrinogen cascade inhibitor peptide glycine-proline-arginine-proline (GPRP, 2 mM final concentration). Thrombin (5 U/ml) was added to 10 μl of sample in 75 μl Tyrode's buffer containing the GPRP (final total volume of 100 μl). Because the CTAD tubes contain reversible inhibitors of platelet activation, it was initially determined that a 10-fold dilution of the whole blood was sufficient to reduce the inhibitors below effective concentration and permit stimulation. […] Next, the reaction was incubated in a 37° C. water bath for 5 or 10 minutes and subsequently diluted to 1000 μl […] with Tyrode's buffer supplemented with 1.5 mM theophylline and 0.37 mM adenosine (final concentration). […]
Staining for MLSC. […] Twenty-one microliters of diluted sample was loaded into Flex32 capillary array and analyzed by Surroscan MLSC. […] Images were converted to flow cytometry standard (fcs) format with in-house software and analyzed with FlowJo™ cytometry analysis software (Tree Star, Inc., San Carlos, Calif.). Fluorescence intensities are compensated for spectral overlap of the dyes. […]

CD62P on platelets [2] = assay: CD62P activation marker on platelets in unfixed whole blood drawn into EDTA or CTAD tubes, MLSC; type: cell-based, human; conditions: for Mean Intensity CD62P: mean relative intensity, entire platelet population
Protocol: (§1) Staining for MLSC. For whole blood platelet stains, 10 μl of whole blood was diluted into 990 μl of Tyrode's buffer supplemented with 1.5 mM theophylline and 0.37 mM adenosine for a final dilution of 1:100. Twenty microliters of diluted whole blood, thrombin-stimulated samples, or control samples were added to 96 well micro-titer plates containing 5 μl of the appropriate reagent cocktail. The cells were incubated in the dark at room temperature for 20 minutes. At the end of the incubation, 50 μl of modified PBS/BSA buffer supplemented with theophylline (1.5 mM)/adenosine (0.37 mM) (to prevent activation), and Zwittergent (50 mM) was added to all the wells and mixed thoroughly. Twenty-one microliters of diluted sample was loaded into Flex32 capillary array and analyzed by Surroscan MLSC. The assays are performed in homogeneous mode, without removal of unbound reagent. After all dilutions, the fluorescent platelet counts per capillary are about 1,000-2,000, comfortably in the range of 10 to 12,000 that is appropriate for the cytometry. This platelet count level provides appropriate counting statistics and avoids coincident events. Images were converted to flow cytometry standard (fcs) format with in-house software and analyzed with FlowJo™ cytometry analysis software (Tree Star, Inc., San Carlos, Calif.). Fluorescence intensities are compensated for spectral overlap of the dyes.
(§2) Previous research has shown that addition of platelet inhibitors to the anti-coagulant greatly reduces the activation state of human platelets prior to testing. Kuhne et al., Am. J. Hematol. 50:40-5 (1995); Mody et al., Transfus.Med. 9:147-54 (1999). […] Blood was obtained from a volunteer (set of 5 volunteers) and processed within 4 hours. This was done without fixation in order to maintain epitope integrity and allow for further activation studies. The samples were incubated with antibodies against platelet surface activation markers CD62P and CD63, as well as antibodies against GPIIIA, an antigen present on all platelets. All platelets were identified with GPIIIa (Cy5.5). The sample was then analyzed using MLSC. Gates for the Cy5-CD62P and Cy5-CD63 positive events were drawn based upon MOPC-21 control antibody staining.

CD63 on platelets [3] = assay: CD63 activation marker on platelets in unfixed whole blood drawn into EDTA or CTAD tubes, MLSC; type: cell-based, human; conditions: for Mean Intensity CD63: mean relative intensity, entire platelet population
Protocol: as §1, §2

platelets [4] = assay: Pan platelet surface antigen expression (CD9, GPIIIA, GPIIB), EDTA versus CTAD samples, MLSC; type: cell-based, human
Protocol: as §1, with “After all dilutions, the fluorescent platelet counts per capillary are about 1,000-2,000, comfortably in the range of 10 to 12,000 that is appropriate for the cytometry. This platelet count level provides appropriate counting statistics and avoids coincident events.” left out
(§3) Previous research has shown that addition of platelet inhibitors to the anti-coagulant greatly reduces the activation state of human platelets prior to testing. […] The sample was then analyzed using MLSC. […]

platelets [5] = assay: Total platelet count in EDTA and CTAD tubes, MLSC; type: cell-based, human; conditions: in the tubes
Protocol: as §1, with “After all dilutions, the fluorescent platelet counts per capillary are about 1,000-2,000, comfortably in the range of 10 to 12,000 that is appropriate for the cytometry. This platelet count level provides appropriate counting statistics and avoids coincident events.” left out
as §3

platelet factor 4 (PF4) = assay: Platelet factor 4 in plasma by chemiluminescent ELISA; design: species or system human
Protocol: Platelet Factor 4 was measured by chemiluminescent using ELISA. Antibodies were obtained from U.S. Biologicals (Swampscott, Mass.) and Affinity Biologicals Enzyme Research Lab. (Southbend, Ind.), recombinant standard from Chemicon (Temecula, Calif.). Briefly, Corning black opaque 96 well microtiter plates were coated with rabbit polyclonal anti-PF4 (human) overnight at 4° C. Plates were washed and samples or standards were added to the wells and allowed to incubate at room temperature. After washing, biotinylated polyclonal sheep anti-PF4 (human) was added followed by washing and the addition of avidin-alkaline Phosphatase. Plates were washed and the CDP-Star R (Tropix, Bedford, Mass.)) substrate added, allowed to develop and read on the Wallac Victor plate reader. The assay sensitivity of the assay is 20 pg/ml.
PF4 expression was determined by ELISA (sensitivity of 20 pg/ml).

CD63 on platelets [6] = assay: Platelet stimulation, CD63 expression by MLSC; type: cell-based, human
Protocol: Platelet stimulation. Thrombin stimulation was carried out on either washed platelets or 1:10 diluted whole blood in the presence of the fibrinogen cascade inhibitor peptide glycine-proline-arginine-proline (GPRP, 2 mM final concentration). Thrombin (5 U/ml) was added to 10 μl of sample in 75 μl Tyrode's buffer containing the GPRP (final total volume of 100 μl). Because the CTAD tubes contain reversible inhibitors of platelet activation, it was initially determined that a 10-fold dilution of the whole blood was sufficient to reduce the inhibitors below effective concentration and permit stimulation. […] Next, the reaction was incubated in a 37° C. water bath for 5 or 10 minutes and subsequently diluted to 1000 μl […] with Tyrode's buffer supplemented with 1.5 mM theophylline and 0.37 mM adenosine (final concentration). In order to stop the stimulation and prevent non-specific activation of the control and test samples caused by the handling and staining techniques, theophylline and adenosine were added to the samples. A control sample lacking only the thrombin was run in parallel.
Staining for MLSC. For whole blood platelet stains, 10 μl of whole blood was diluted into 990 μl of Tyrode's buffer supplemented with 1.5 mM theophylline and 0.37 mM adenosine for a final dilution of 1:100. Twenty microliters of diluted whole blood, thrombin-stimulated samples, or control samples were added to 96 well micro-titer plates containing 5 μl of the appropriate reagent cocktail. The cells were incubated in the dark at room temperature for 20 minutes. […] Twenty-one microliters of diluted sample was loaded into Flex32 capillary array and analyzed by Surroscan MLSC. […] Images were converted to flow cytometry standard (fcs) format with in-house software and analyzed with FlowJo™ cytometry analysis software (Tree Star, Inc., San Carlos, Calif.). Fluorescence intensities are compensated for spectral overlap of the dyes. […]

CD62P on platelets [7] = conditions: thrombin; expected value; cited from earlier work
CD63 on platelets [8] = conditions: thrombin; expected value; cited from earlier work
[9] = 24 hr from draw, average of 4 measurements
[10] = 48 hr from draw, average of 5 subjects
[11] = thrombin 5 U/ml, 5 minute activation, whole blood 1:10 with GPRP, average of 19 to 22 subjects

Nc1ncnc2c1ncn2[C@@H]1O[C@H](COP(=O)(O)OP(=O)(O)O)[C@@H](O)[C@H]1O [ADP, adenosine diphosphate]
platelets expressing CD62P (CD62P on platelets [1]; 30-minute stimulation with ADP): greater than 60%

O=C(O)CN(CCN(CC(=O)O)CC(=O)O)CC(=O)O [EDTA, Ethylene-diamino-tetra-acetic acid]
% Positive CD62P (CD62P on platelets [2]; [9]): 49 ± 20 % | Mean Intensity CD62P (CD62P on platelets [2]; 24 hr from draw): 910 ± 130 | % Positive CD62P (CD62P on platelets [2]; [10]): 41 ± 4.8 % | Mean Intensity CD62P (CD62P on platelets [2]; 48 hr from draw): 900 ± 60 | Mean Intensity CD62P (CD62P on platelets [2]; <4 hr from draw): 1110 ± 230 | % Positive CD62P (CD62P on platelets [2]; <4 hr from draw, platelets identified with GPIIIA, average of 5 subjects): 37 ± 17 % | range of platelet activation levels observed (CD62P on platelets [2]; EDTA samples, all time points): 8 to 50% | platelets positive for CD62P (CD62P on platelets [2]; matched samples analyzed over 48 hours): 40-50% | % Positive CD63 (CD63 on platelets [3]; [9]): 37 ± 22% | Mean Intensity CD63 (CD63 on platelets [3]; 24 hr from draw): 690 ± 77 | % Positive CD63 (CD63 on platelets [3]; [10]): 15 ± 7.0 % | Mean Intensity CD63 (CD63 on platelets [3]; 48 hr from draw): 680 ± 42 | % Positive CD63 (CD63 on platelets [3]; <4 hr from draw, average of 5 subjects): 22 ± 20 % | Mean Intensity CD63 (CD63 on platelets [3]; <4 hr from draw): 760 ± 43 | mean fluorescence intensity of GPIIB, lower in EDTA compared to CTAD (platelets [4]; EDTA relative to CTAD): about 40% | differences in expression of pan surface antigens CD9 or GPIIIA on platelets (platelets [4]; between EDTA and CTAD samples): no observable differences | change in total platelet count from 4 to 48 hours (platelets [5]): small but significant decrease | PF4 release, times greater in EDTA than in CTAD samples (platelet factor 4 (PF4); EDTA relative to CTAD, p<0.05): 5 times | PF4 in plasma (platelet factor 4 (PF4); average of 5 individuals, matched EDTA and CTAD draws): 627 ± 449 pg/mL

thrombin
Observed CD62P positive platelets (CD62P on platelets [1]; [11]): 192,000 ± 53,000 platelets/μl | expression level of CD63 on platelets after stimulation (CD63 on platelets [6]; five minute stimulation with thrombin): greatly increased | Observed CD63 positive platelets (CD63 on platelets [6]; [11]): 142,000 ± 40,000 platelets/μl | % of total platelets expressing CD63 (CD63 on platelets [6]; thrombin activation (5 U/ml, 5 minute), CTAD whole blood): 72 ± 8.2% | Expected % CD62P positive (CD62P on platelets [7]): >95% | Expected % CD63 positive (CD63 on platelets [8]): >80%
